Peptide text beside a SMILES is read from it. Where only a bound is given, the exact number is not on record here.

Drawing on patent US5656726A, “Peptide inhibitors of urokinase receptor activity” (Chiron Corporation, priority 1995, dated 1997), this text covers Kd for 16 compounds.

T1 sequence (Q03405 23-299 limits assumed): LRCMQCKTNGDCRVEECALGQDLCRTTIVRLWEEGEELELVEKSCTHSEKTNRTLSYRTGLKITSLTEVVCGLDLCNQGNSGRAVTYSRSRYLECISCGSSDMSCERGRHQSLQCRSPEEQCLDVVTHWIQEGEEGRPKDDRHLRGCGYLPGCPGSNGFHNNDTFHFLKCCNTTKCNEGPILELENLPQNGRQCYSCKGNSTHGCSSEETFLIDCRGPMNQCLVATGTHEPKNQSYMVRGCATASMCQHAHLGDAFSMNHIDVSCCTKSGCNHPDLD

The first test has as its target T1, recombinant human urokinase receptor (truncated, soluble; suPAR) (Homo sapiens, UniProt Q03405).
T1 construct: expressed as a truncated, soluble molecule as described previously for mouse L-cells (Masucci et al., J Biol Chem (1991) 266:8655); made in house
Description: 125I-ATF competition binding on immobilized soluble recombinant human urokinase receptor. The settings on record: synthesized peptide; assay performed at 100 pM ATF, 0.3 μg/mL suPAR in 200 μL (starred values); read-out: Affinity.
Turning to `CSCC[C@H](NC(=O)[C@H](Cc1c[nH]c2ccccc12)NC(=O)[C@H](CC(C)C)NC(=O)[C@H](CC(=O)O)NC(=O)[C@H](CC(C)C)NC(=O)[C@H](CCC(=O)O)NC(=O)[C@H](C)N)C(=O)N[C@@H](CCCNC(=N)N)C(=O)N[C@@H](Cc1c[nH]cn1)C(=O)N[C@@H](Cc1ccc(O)cc1)C(=O)N1CCC[C@H]1C(=O)N[C@@H](CC(C)C)C(=O)N[C@@H](CO)C(=O)N[C@@H](Cc1ccccc1)C(=O)N[C@@H](CO)C(=O)N[C@@H](CC(N)=O)C(=O)N[C@@H](CCCNC(=N)N)C(N)=O` (H-AELDLWMRHYPLSFSNR-NH2), the Kd was determined as 0.8 µM.

Take `CC[C@H](C)[C@H](NC(=O)[C@H](Cc1c[nH]c2ccccc12)NC(=O)[C@H](CC(C)C)NC(=O)[C@H](CC(=O)O)NC(=O)[C@H](C)NC(=O)[C@H](CCC(=O)O)NC(=O)[C@H](CO)NC(=O)[C@H](CC(C)C)NC(=O)[C@H](CCC(=O)O)NC(=O)[C@H](C)N)C(=O)N[C@H](C(=O)N[C@@H](Cc1c[nH]c2ccccc12)C(=O)N[C@@H](Cc1ccccc1)C(=O)NCC(=O)N[C@@H](CCSC)C(=O)NCC(=O)N[C@@H](CO)C(N)=O)[C@@H](C)O` (H-AELSEADLWITWFGMGS-NH2): the Kd came to 20 µM.

Consider `CSCC[C@H](NC(=O)[C@@H]1CCCN1C(=O)[C@H](CCC(=O)O)NC(=O)[C@H](C)N)C(=O)N1CCC[C@H]1C(=O)N[C@@H](Cc1c[nH]cn1)C(=O)N[C@@H](CO)C(=O)N[C@@H](CC(C)C)C(=O)N[C@@H](CC(N)=O)C(=O)N[C@@H](Cc1ccccc1)C(=O)N[C@@H](CO)C(=O)N[C@@H](CCC(N)=O)C(=O)N[C@@H](Cc1ccc(O)cc1)C(=O)N[C@@H](CC(C)C)C(=O)N[C@@H](Cc1c[nH]c2ccccc12)C(=O)N[C@@H](Cc1ccc(O)cc1)C(=O)N[C@H](C(N)=O)[C@@H](C)O` (H-AEPMPHSLNFSQYLWYT-NH2), for which the Kd amounted to 0.015 µM.

On to `CC[C@H](C)[C@H](NC(=O)[C@H](CCC(=O)O)NC(=O)[C@H](C)N)C(=O)N[C@@H](CC(C)C)C(=O)N[C@@H](CC(N)=O)C(=O)N[C@@H](Cc1ccccc1)C(=O)N1CCC[C@H]1C(=O)N[C@@H](CC(C)C)C(=O)N[C@@H](Cc1c[nH]c2ccccc12)C(=O)N[C@@H](Cc1c[nH]cn1)C(=O)N[C@@H](CCC(=O)O)C(=O)N1CCC[C@H]1C(=O)N[C@@H](CC(C)C)C(=O)N[C@@H](Cc1c[nH]c2ccccc12)C(=O)N[C@@H](CO)C(=O)N[C@H](C(=O)N[C@@H](CCC(=O)O)C(N)=O)[C@@H](C)O` (H-AEILNFPLWHEPLWSTE-NH2), for which the Kd stood at 15 µM.

For `CC[C@H](C)[C@H](NC(=O)[C@H](CCC(=O)O)NC(=O)[C@H](C)N)C(=O)N[C@@H](CO)C(=O)N[C@@H](Cc1ccccc1)C(=O)N[C@@H](CO)C(=O)N[C@@H](CCC(=O)O)C(=O)N[C@@H](CC(C)C)C(=O)N[C@@H](CCSC)C(=O)N[C@@H](Cc1c[nH]c2ccccc12)C(=O)N[C@@H](CC(C)C)C(=O)N[C@@H](CCCNC(=N)N)C(=O)N[C@@H](CO)C(=O)N[C@H](C(=O)N1CCC[C@H]1C(=O)N[C@@H](C)C(=O)N[C@@H](Cc1ccccc1)C(N)=O)[C@@H](C)O` (H-AEISFSELMWLRSTPAF-NH2), the Kd stood at 6 µM.

Turning to `CC[C@H](C)[C@H](NC(=O)[C@H](Cc1c[nH]cn1)NC(=O)[C@H](CCCCN)NC(=O)[C@H](CC(=O)O)NC(=O)[C@H](Cc1c[nH]cn1)NC(=O)[C@H](Cc1c[nH]c2ccccc12)NC(=O)[C@H](CC(C)C)NC(=O)[C@H](CC(=O)O)NC(=O)[C@H](CCSC)NC(=O)[C@H](Cc1ccccc1)NC(=O)[C@H](CC(C)C)NC(=O)[C@@H](NC(=O)[C@H](CCC(=O)O)NC(=O)[C@H](C)N)[C@@H](C)O)C(=O)N[C@@H](CC(C)C)C(=O)N[C@@H](CC(C)C)C(=O)N[C@H](C(N)=O)[C@@H](C)O` (H-AETLFMDLWHDKHILLT-NH2), the Kd stood at 7 µM.

Still in this test, the particulars now being: synthesized peptide; corrected to 100 pM ATF, 0.3 μg/mL suPAR conditions, corrections about 3 × from previous assay conditions; read-out: Affinity.
On to `CC(C)C[C@H](NC(=O)[C@H](CCCNC(=N)N)NC(=O)[C@H](CC(C)C)NC(=O)[C@@H]1CCCN1C(=O)[C@H](Cc1ccccc1)NC(=O)[C@H](CCC(N)=O)NC(=O)[C@H](Cc1ccc(O)cc1)NC(=O)[C@H](CC(C)C)NC(=O)[C@H](CCC(N)=O)NC(=O)[C@H](Cc1c[nH]c2ccccc12)NC(=O)[C@H](CC(C)C)NC(=O)[C@@H](NC(=O)[C@@H]1CCCN1C(=O)[C@H](CCC(=O)O)NC(=O)[C@H](C)N)[C@@H](C)O)C(=O)N[C@@H](CO)C(=O)NCC(N)=O` (H-AEPTLWQLYQFPLRLSG-NH2), for which the Kd amounted to 5 µM.

`CC[C@H](C)[C@H](NC(=O)[C@H](CO)NC(=O)[C@@H](NC(=O)[C@H](CC(C)C)NC(=O)[C@@H](NC(=O)[C@@H]1CCCN1C(=O)[C@H](CC(C)C)NC(=O)[C@H](CO)NC(=O)[C@H](CCC(=O)O)NC(=O)[C@H](C)N)[C@@H](C)O)[C@@H](C)O)C(=O)N[C@@H](CC(C)C)C(=O)N[C@@H](Cc1c[nH]c2ccccc12)C(=O)NCC(=O)N[C@@H](CCCCN)C(=O)N[C@@H](CCC(=O)O)C(=O)N[C@@H](CO)C(=O)N[C@H](C(N)=O)C(C)C` (H-AESLPTLTSILWGKESV-NH2): the Kd came to 7 µM.

Consider `CC(C)C[C@H](NC(=O)[C@H](CCC(=O)O)NC(=O)[C@H](C)N)C(=O)N1CCC[C@H]1C(=O)N[C@@H](CCCNC(=N)N)C(=O)N[C@H](C(=O)N[C@@H](CC(N)=O)C(=O)N1CCC[C@H]1C(=O)N[C@H](C(=O)N[C@H](C(=O)N[C@@H](C)C(=O)N[C@H](C(=O)N[C@@H](CCCCN)C(=O)N[C@@H](CC(N)=O)C(=O)N1CCC[C@H]1C(=O)N[C@@H](CO)C(=O)N[C@@H](Cc1ccccc1)C(N)=O)C(C)C)[C@@H](C)O)C(C)C)[C@@H](C)O` (H-AELPRTNPVTAVKNPSF-NH2), for which the Kd is over 50 µM.

Regarding `CC[C@H](C)[C@H](NC(=O)[C@@H](NC(=O)[C@H](CCC(N)=O)NC(=O)[C@@H]1CCCN1C(=O)[C@H](CCC(=O)O)NC(=O)[C@@H]1CCCN1C(=O)[C@H](CC(C)C)NC(=O)[C@H](Cc1c[nH]cn1)NC(=O)[C@H](CC(C)C)NC(=O)[C@H](CC(N)=O)NC(=O)[C@H](Cc1ccc(O)cc1)NC(=O)[C@H](Cc1ccccc1)NC(=O)[C@H](CO)NC(=O)[C@H](Cc1c[nH]c2ccccc12)NC(=O)[C@H](CCC(=O)O)NC(=O)[C@H](C)N)[C@@H](C)O)C(=O)N[C@@H](Cc1ccccc1)C(N)=O` (H-AEWSFYNLHLPEPQTIF-NH2), the Kd amounted to 5 µM.

For the compound `CC[C@H](C)[C@H](NC(=O)[C@H](Cc1c[nH]c2ccccc12)NC(=O)[C@H](CCC(=O)O)NC(=O)[C@H](C)N)C(=O)N[C@H](C(=O)N[C@@H](CO)C(=O)N[C@@H](CO)C(=O)N1CCC[C@H]1C(=O)N1CCC[C@H]1C(=O)N[C@@H](CC(C)C)C(=O)N[C@H](C(=O)N[C@@H](CCC(N)=O)C(=O)N[C@@H](Cc1ccc(O)cc1)C(=O)N[C@@H](CC(C)C)C(=O)N[C@@H](Cc1c[nH]c2ccccc12)C(=O)NCC(=O)N[C@@H](Cc1ccccc1)C(N)=O)[C@@H](C)O)[C@@H](C)O` (H-AEWITSSPPLTQYLWGF-NH2), the Kd came to 10 µM.

On to `CC(C)C[C@H](NC(=O)CNC(=O)[C@@H]1CCCN1C(=O)[C@H](CC(N)=O)NC(=O)[C@H](Cc1ccccc1)NC(=O)[C@H](Cc1ccccc1)NC(=O)[C@H](Cc1ccccc1)NC(=O)[C@H](CO)NC(=O)[C@H](Cc1c[nH]c2ccccc12)NC(=O)[C@H](CC(N)=O)NC(=O)[C@H](CC(C)C)NC(=O)[C@H](CC(C)C)NC(=O)[C@H](C)NC(=O)[C@@H]1CCCN1C(=O)[C@H](CCC(=O)O)NC(=O)[C@H](C)N)C(=O)N[C@@H](Cc1c[nH]cn1)C(N)=O` (H-AEPALLNWSFFFNPGLH-NH2), for which the Kd amounted to 3 µM.

With `CSCC[C@H](NC(=O)[C@@H](NC(=O)[C@H](CC(N)=O)NC(=O)[C@H](CO)NC(=O)[C@H](CC(C)C)NC(=O)[C@H](Cc1ccccc1)NC(=O)[C@H](Cc1c[nH]c2ccccc12)NC(=O)[C@H](C)NC(=O)[C@H](CCC(=O)O)NC(=O)[C@H](C)N)[C@@H](C)O)C(=O)N[C@@H](CCCCN)C(=O)N[C@@H](C)C(=O)N[C@@H](CC(C)C)C(=O)N[C@@H](CO)C(=O)N[C@@H](C)C(=O)N[C@@H](CCCNC(=N)N)C(=O)N[C@@H](CC(C)C)C(N)=O` (H-AEAWFLSNTMKALSARL-NH2), the Kd amounted to 4 µM.

With `CC(C)C[C@H](NC(=O)[C@@H](NC(=O)CNC(=O)[C@@H](NC(=O)[C@H](CCC(N)=O)NC(=O)[C@H](CO)NC(=O)[C@H](CCC(=O)O)NC(=O)[C@H](C)N)[C@@H](C)O)[C@@H](C)O)C(=O)N[C@@H](CC(N)=O)C(=O)N[C@H](C(=O)N[C@@H](CC(C)C)C(=O)N[C@@H](Cc1ccccc1)C(=O)N[C@@H](Cc1c[nH]c2ccccc12)C(=O)N[C@@H](CC(N)=O)C(=O)N[C@H](C(=O)N[C@@H](CC(C)C)C(=O)N[C@@H](CCCNC(=N)N)C(N)=O)[C@@H](C)O)[C@@H](C)O` (H-AESQTGTLNTLFWNTLR-NH2), the Kd came to 7 µM.

With `CSCC[C@H](NC(=O)[C@H](CO)NC(=O)[C@@H]1CCCN1C(=O)[C@H](Cc1c[nH]c2ccccc12)NC(=O)[C@H](C)NC(=O)[C@H](Cc1ccc(O)cc1)NC(=O)[C@H](CCCNC(=N)N)NC(=O)[C@@H](NC(=O)[C@H](Cc1c[nH]c2ccccc12)NC(=O)[C@H](CC(C)C)NC(=O)[C@H](CO)NC(=O)[C@H](CO)NC(=O)[C@H](CCC(=O)O)NC(=O)[C@H](C)N)[C@@H](C)O)C(=O)N1CCC[C@H]1C(=O)N[C@@H](CO)C(=O)N[C@@H](Cc1ccc(O)cc1)C(N)=O` (H-AESSLWTRYAWPSMPSY-NH2), the Kd was determined as 0.35 µM.

`CC(C)C[C@H](NC(=O)[C@H](CCCCN)NC(=O)[C@H](CO)NC(=O)[C@H](Cc1ccc(O)cc1)NC(=O)[C@H](CCC(N)=O)NC(=O)[C@@H](NC(=O)[C@H](CO)NC(=O)[C@H](CCC(=O)O)NC(=O)[C@H](C)N)C(C)C)C(=O)N[C@@H](Cc1c[nH]c2ccccc12)C(=O)N[C@@H](CCCCN)C(=O)N1CCC[C@H]1C(=O)N[C@@H](CC(N)=O)C(=O)N[C@H](C(=O)N[C@H](C(=O)N[C@@H](CC(C)C)C(=O)N[C@@H](C)C(N)=O)[C@@H](C)O)[C@@H](C)O` (H-AESVQYSKLWKPNTTLA-NH2): the Kd is over 50 µM.
